Test results reported in patent US8288363B2, “Medicaments for anti-herpes virus treatments” (ASE & BIO, priority 2006, dated 2012).

Legend:
HSV-2 = assay: Anti-herpes activity, viability of infected vero cells (neutral red); assay type: cell-based, herpes simplex virus 2; conditions: for EC50: MOI 0.01 ID50/cell
Method: (§1) This method is based on the principle that living cells absorb neutral red, which is a vital stain. The optical density of the medium was measured at the maximum absorption wavelength of neutral red, that is to say 540 nm, using a spectrophotometer (SpectraCount™, microplate photometer, Packard). The optical density at 540 nm is proportional to the number of living cells in an infected culture (McLaren et al., Antiviral Research, 1983; 3: 223-234 and Langlois et al., Standardization, 1986, 14: 201-211).
(§2) The effective concentration (EC 50%), that is to say the concentration of the sulphated polysaccharide which enables infection of 50% of the cells of a culture to be inhibited, was measured for each viral strain.
(§3) The determination of the EC50 was carried out in 96-well microtitre plates in accordance with the following protocol. Vero cells are seeded at a cell density of 3.5·10^4 cells/well in 100 μl of MEM medium containing 8% FCS. For each viral suspension defined by its MOI: • the negative control column was filled with 100 μl of MEM medium with 8% FCS, • the virus control column was filled with 50 μl of viral suspension having the required MOI and with 50 μl of MEM medium with 8% FCS, • the PS3 control column was filled with 50 μl of PS3 having the desired concentration range or with 50 μl of acyclovir (Zovirax 0.05-5 μg/ml • finally, all the other columns were filled successively with 50 μl of PS3 having the required concentration range or with 50 μl of acyclovir (Zovirax 0.05-5 μg/ml) and with 50 μl of the viral suspension having the desired MOI.
(§4) The EC50 corresponding to the concentration which enables the cytopathic effect of the virus to be reduced by 50% was calculated in accordance with the following formula: […]
(§5) The anti-herpes activity of PS3 was evaluated and compared on each viral suspension of HSV-1, HSV-1R, HSV-2 and HSV-2R defined by an MOI of 0.01 ID50/cell for a cell concentration of 350,000 cells/ml, after incubation times of 48 and 72 hours.
(§6) This series of experiments was carried out applying the protocol enabling the EC50 to be determined, as described in Example 3.
(§7) The therapeutic indices (TI) of PS3, as well as three other reference products, that is to say acyclovir, dextran sulphate and phycarine, were determined in parallel for each viral strain.
(§8) The therapeutic index (TI) represents the ratio between the maximum non-toxic dose (or a dose inducing a quantified toxicity) and the dose inducing a favourable pharmacological effect.

[1] = test system: acyclovir-resistant strain HSV-2R; assay: as above; assay type: cell-based, herpes simplex virus 2; conditions: for Anti-herpes activity (conclusion in words) / EC50: HSV-2R; for Anti-herpes activity (conclusion in words): 48 and 72 hours; for EC50: MOI 0.01 ID50/cell
Method: as §1, §2, §3, §4, §5, §6, §7, §8

[2] = test system: HSV-1, HSV-1R, HSV-2 and HSV-2R; assay: Action on the viral infection: vero cells pretreated before infection; assay type: cell-based, herpes simplex virus
Method: The abovementioned viral suspensions of HSV-1, HSV-1R, HSV-2 and HSV-2R, defined by an MOI of 0.01 ID50/cell for a cell concentration of 350,000 cells/ml, were tested.
Acyclovir and dextran sulphate used at concentrations comprised between 0.05 and 5 μg/ml were used as reference products in this series of experiments. PS3 concentrations of 0.125 to 1,250 μg/ml were used, and the experiments were carried out in 96-well microtitre plates.
To verify whether PS3 protects a cell culture when it is used before its infection by the abovementioned viral strains, the procedure was as follows.
Vero cells were seeded at a cell density of […] in 100 μl of MEM medium containing 8% FCS.
A solution of 50 μl of PS3 or the comparison product, that is to say acyclovir having a given concentration, was then added to each well filled with 50 μl of MEM medium with 8% FCS.
The microtitre plate containing the cells treated with PS3 or the reference product was than placed in an oven at 37° C. for 6, 12 or 24 hours. The cells were then washed with 100 μl of MEM medium in order to remove the PS3 or the reference product.
A volume of 50 μl of a viral suspension was then added to each well, as well as 50 μl of MEM medium with 8% FCS; and the plates were kept at 4° C. for 1 hour.
The infected cells were then placed in an oven at 37° C. for 48 or 72 hours.

[3] = test system: HSV-1, HSV-1R, HSV-2 and HSV-2R; assay: Action on the viral adsorption, conclusion for the strains together; assay type: cell-based, herpes simplex virus
Method: To determine whether PS3 has an effect on the viral adsorption, the procedure was as follows.
Vero cells were seeded at a cell density of 3.5·10^4 cells/well of a 96-well microtitre plate in 100 μl of MEM medium containing 8% FCS 24 hours before the test. The viral suspensions of HSV-1, HSV-1R, HSV-2 and HSV-2R, defined by an MOI of 0.01 ID50/cell for a cell concentration of 350,000 cells/ml, were tested.
On the day of the test, the cells were subjected to three different treatments designated A, B and C.
According to treatment A, cells treated with 50 μl of PS3 or comparison product (acyclovir) of a given concentration were infected with 50 μl of one of the viral suspensions identified above for one hour at 4° C.
The infected cells were then washed with 100 μl of saline buffer in order to remove the PS3 or the reference product as well as the viral particles which had not been adsorbed by the cells.
After having filled each well with sufficient MEM medium containing 8% FCS to arrive at a volume of 200 μl, the cells were then placed in an oven at 37° C. for 72 hours. […]
For these 3 treatments, the inhibitory effect of PS3 and of the reference product (expressed in EC50) on the adsorption of the four abovementioned viral strains after 72 hours was evaluated by measurement of the EC50 values in accordance with the method described in Example 3.

[4] = non-resistant strains HSV-1 and HSV-2
[5] = strains HSV-1, HSV-2, HSV-1R, HSV-2R, cells pretreated 6, 12 or 24 hours, washed, then infected

Compound | Therapeutic index HSV-2 (HSV-2; incubation time 48 hours) | Therapeutic index HSV-2 (HSV-2; incubation time 72 hours) | Anti-herpes activity (conclusion in words) [1] | Therapeutic index HSV-2R ([1]; incubation time 48 hours) | Therapeutic index HSV-2R ([1]; incubation time 72 hours) | Effect before infection [2, 4] | Effect before infection [2, 5] | Effect on adsorption [3, 4] | Anti-herpes activity (conclusion in words) (HSV-2; HSV-2, 48 and 72 hours) | EC50 (HSV-2; HSV-2, after 48 hours of treatment) | EC50 (HSV-2; HSV-2, after 72 hours of treatment) | EC50 ([1]; after 48 hours of treatment) | EC50 ([1]; after 72 hours of treatment) | Effect on adsorption ([3]; strains HSV-1, HSV-2, HSV-1R, HSV-2R)
Nc1nc2c(ncn2COCCO)c(=O)[nH]1 [Acyclovir, acyclovir, reference compound] | >579 | >613 | not effective | 0 | 0 | no | not protected | no | – | – | – | – | – | –
sulphated laminarin [PS3] | >4,808 | >1,344 | more effective than acyclovir | >3,788 | >1,712 | – | not protected and no | – | more effective than acyclovir | less than 2 μg/ml | less than 5 μg/ml | less than 2 μg/ml | less than 5 μg/ml | inhibitory effect on the 4 viral strains solely during treatment C and yes
